In one data set the target is human CB1. The conditions noted are these: one per compound, cited from earlier work.
For data set [1], the target named is T1, human CB1 receptor (Homo sapiens, UniProt P21554). Description: biochemical. The note with it: CB1 inhibition IC50 (μM, 95% CI). The procedure: Ten compound concentrations equally spaced on a log scale (10^–3 to 10^–9 M) were incubated in triplicate with membrane preparations from CHO-K1 cells expressing the human CB1 receptor (5 μg per well) (Perkin Elmer, cat. no. ES-110-M400UA) in an assay buffer containing 50 mM Tris-HCl, pH = 7.4, 1 mM EGTA, 3 mM MgCl2, 100 mM NaCl and 30 μM GDP) in the presence of 0.08 nM [^35S]GTPγS (specific activity: 1250 Ci/mmole, Perkin Elmer). Non-specific binding was determined with 100 μM of unlabeled GTPγS. […] The final DMSO concentration in the assay was 5%. The reaction mixture was incubated for 90 min. at 30°C . Next, the samples were deposited under vacuum with the FilterMate Harvester® (Perkin Elmer, USA) onto Unifilter® GF/B Plates (Perkin Elmer, USA) presoaked with wash buffer (50 mM Tris-HCl, pH = 7.4). The samples were then rapidly washed with 2 ml of wash buffer. Filter plates were dried for 30 min. at 50 °C and 40 μL of MicroScint PS (Perkin Elmer, USA) scintillation fluid was added to each well. Radioactivity was counted in a Trilux MicroBeta^2 counter (Perkin Elmer, USA). Data were analyzed with GraphPad Prism 5.0 software. Curves were fitted with three-parameter non-linear regression model.
T1 sequence (P21554 whole entry): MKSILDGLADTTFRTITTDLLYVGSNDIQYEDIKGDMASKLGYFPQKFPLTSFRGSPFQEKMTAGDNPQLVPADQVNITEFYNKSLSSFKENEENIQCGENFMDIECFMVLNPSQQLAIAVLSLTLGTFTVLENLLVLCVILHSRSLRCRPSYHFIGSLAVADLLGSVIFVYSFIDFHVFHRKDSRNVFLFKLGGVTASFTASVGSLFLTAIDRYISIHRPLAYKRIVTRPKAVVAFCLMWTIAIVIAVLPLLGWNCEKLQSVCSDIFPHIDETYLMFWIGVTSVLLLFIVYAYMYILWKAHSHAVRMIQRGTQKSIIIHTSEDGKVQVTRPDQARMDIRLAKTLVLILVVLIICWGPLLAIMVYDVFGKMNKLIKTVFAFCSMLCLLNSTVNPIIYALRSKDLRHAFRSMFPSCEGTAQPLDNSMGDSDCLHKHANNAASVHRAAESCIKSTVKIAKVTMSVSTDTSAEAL

In data set [2] the target is T1, human CB1 receptor. It is filed as biochemical. The note with it: in words.
Data set [3] has as its target T1, human CB1 receptor. Put plainly: biochemical. It is filed as binding. On the set-up: purchased Merck HTS019M; host or cells: Chem-1 cells. The text has this: Compounds selected for the in vitro binding assay from the first iteration of VS were purchased via MolPort, SIA, Riga, Latvia and Biopurify Phytochemicals Ltd., Chengdu, China. Compounds from the second iteration were purchased from MolPort, SIA, Riga, Latvia and Chemspace, SIA, Riga, Latvia (Supporting Information S3). […] Membranes from cells overexpressing the human CB1 receptor (ChemiScreen CB1 Cannabinoid Receptor Membrane Preparation, cat. no. HTS019M) as well as MgCl2, CaCl2, Trizma Base, NaCl, polyethylenimine (PEI) and dimethyl sulfoxide (DMSO) were purchased from Merck (USA). Bovine serum albumin (BSA) was obtained from Pol-Aura (Poland).
Compounds were dissolved in 50% DMSO and added to the reaction mixture at 10 concentrations equally spaced on a log scale (10^–10 to 10^–4.5 M). The final DMSO concentration was 5%. […] The reaction mixture (500 μL) was incubated for 1.5 h at 30°C . Before harvesting, Whatman GF/B Filter Paper (Brandel, USA) was presoaked with 0.33% PEI buffer for 30 min. and then washed with 2 ml of 50 mM Tris-HCl buffer (pH = 7.4) and 0.5% BSA to minimize non-specific binding. The reaction was terminated by depositing the samples onto GF/B filter paper with the Brandel M-24 Cell Harvester (Brandel, USA). Samples were then rapidly washed 3 times with 2 ml of ice-cold wash buffer (50 mM Tris-HCl pH 7.4, 500 mM NaCl) to separate the bound radioligand from free. Filters were then air-dried for 1 h at 60°C . After drying, filter discs were placed on a flexible 24-well plate and 500 μL of EcoScint-20 scintillant was added to each well. Plates were counted (2 min. per well) in a Trilux MicroBeta^2 2450 scintillation counter (Perkin Elmer, USA). Data were analyzed with GraphPad Prism 5.0 software.[89]

On the set-up of data set [4]: method as in MedChemExpress product data sheet. The note with it: ref MedChemExpress product data sheet, listed as Flupentixol dihydrochloride, cited from earlier work.
The mark [5] stands for this setting: CB1 agonists, Table S8, ref SI (1)-(19).
[6] abbreviates: CB1 antagonists/inverse agonists, Table S9, ref SI (20)-(38).
Setting [7] is: [3H]CP-55,940 displacement, membranes of Chem-1 cells expressing human CB1, read-out: pKi ± SEM (converted).
The mark [8] stands for this setting: [3H]CP-55,940 displacement, membranes of Chem-1 cells expressing human CB1.

Values joined by “and” are separate entries in the source; they are usually repeats but may differ in a detail not shown here. Equal values may be shown once. Read-outs that look alike come from different tables or passages of the source. Bounds are passed on as bounds.

For the compound `CCCCC/C=C\C/C=C\C/C=C\C/C=C\CCCC(=O)NCCCl` [ACEA], the Ki on human CB1 (setting [5]) is 5.3 nM.

Turning to `Cc1c(C(=O)NN2CCOCC2)nn(-c2ccc(Cl)cc2Cl)c1-c1ccc(I)cc1` [AM-281], the Ki at human CB1 (setting [6]) was 12 nM.

Regarding `CC1=CC[C@@H]2[C@@H](C1)c1c(O)cc(C34CC5CC(CC(C5)C3)C4)cc1OC2(C)C` [AM-411], the Ki on human CB1 (setting [5]) is 6.8 nM.

In the case of `CC(C)(CCCCCCN=C=S)c1cc(O)c2c(c1)OC(C)(C)[C@@H]1CC[C@@H](CO)C[C@@H]21` [AM-841], the Ki on human CB1 (setting [5]) is 1.14 nM.

As to `Cc1c(C(=O)NN2CCCCC2)nn(-c2ccc(Cl)cc2Cl)c1-c1ccc(C#CCCO[N+](=O)[O-])cc1` [AM-6538], the Ki on human CB1 (setting [6]) was 3.4 nM.

In the case of `Cc1c(C(=O)NN2CCS(=O)(=O)CC2)nn(-c2ccc(Cl)cc2Cl)c1-c1ccc(C#CCCC#N)cc1` [AM-6545], the Ki on human CB1 (setting [6]) was 1.7 nM.

With `CC1=CC[C@@H]2[C@@H](C1)c1c(O)cc(C(C)(C)CCCCCCBr)cc1OC2(C)C` [AM-11542], the Ki on human CB1 (setting [5]) was 0.11 nM.

As for `CCOc1ccc(Cc2nc3cc(N(C)S(=O)(=O)c4cccs4)ccc3n2CC2CCCCC2)nc1` [AZ-11713908], the Ki at human CB1 (setting [5]) was 3 nM.

As for `CCCCCCC(C)(C)c1cc(O)c2c(c1)OC(C)(C)[C@@H]1CC=C(C(=O)O)C[C@@H]21` [Ajulemic acid], on human CB1 (setting [5]), the Ki was 5.7 nM.

In the case of `CCCCC/C=C\C/C=C\C/C=C\C/C=C\CCCC(=O)NCCO` [Anandamide], the Ki at human CB1 (setting [5]) was 70 nM.

Turning to `O=S(=O)(CCCC(F)(F)F)Oc1cccc(Oc2cccc3c2C[C@H](CO)C3)c1` [BAY 38-7271], the Ki on human CB1 (setting [5]) is 2.91 nM.

`N#Cc1c(Oc2cccc(OS(=O)(=O)CCCC(F)(F)F)c2)cccc1C(F)(F)F` [BAY 59-3074]: the Ki on human CB1 (setting [5]) is 48.3 nM.

Turning to `Cc1nc2c(-c3ccc(Cl)cc3)n(-c3ccccc3Cl)nc2c(=O)n1CC(F)(F)F` [CHEMBL201602], on human CB1 (setting [6]), the Ki is 0.6 nM.

As to `Cc1c(C(=O)NN2CCCCC2)nn(-c2ccc(Cl)cc2Cl)c1-c1ccc(N)cc1` [CHEMBL349955], the Ki on human CB1 (setting [6]) was 81.5 nM.

On to `CC(C)N1CCOc2c(nn(-c3ccccc3Cl)c2-c2ccc(Cl)cc2)C1=O` [CHEMBL482741], for which, at human CB1 (setting [6]), the Ki was 1.3 nM.

`CCNC1(C(N)=O)CCN(c2cnc(-c3ccc(OCC)cc3)c(-c3ccccc3Cl)n2)CC1` [CHEMBL495891]: at human CB1 (setting [6]), the Ki is 15 nM.

Turning to `CCNC1(C(N)=O)CCN(c2cnc(-c3ccc(Cl)cc3)c(-c3ccc(Cl)cc3Cl)n2)CC1` [CHEMBL496293], at human CB1 (setting [6]), the Ki was 0.91 nM.

For the compound `CCNC1(C(N)=O)CN(c2cnc(-c3ccc(C(F)(F)F)cc3)c(-c3ccnc(Cl)c3)n2)C1` [CHEMBL498783], on human CB1 (setting [6]), the Ki is 1.2 nM.

On to `Cc1c(-c2cn(-c3ccccc3)cn2)nn(-c2ccccc2Cl)c1-c1ccc(Cl)cc1` [CHEMBL568221], for which the Ki on human CB1 (setting [6]) was 3.8 nM.

Turning to `CCCCCCC(C)(C)c1ccc([C@@H]2C[C@H](O)C[C@@H]3CC[C@H](CO)C[C@H]32)c(O)c1` [CP-55,244], the Ki at human CB1 (setting [5]) is 1 nM.

Consider `COc1cc(O)c2c(=O)cc(-c3ccc(OC)c(-c4c(O)cc(O)c5c(=O)cc(-c6ccc(O)cc6)oc45)c3)oc2c1` [Compound 15, ginkgetin], for which the IC50 on human CB1 receptor [1] worked out at 63 µM. On human CB1 receptor [2], the intrinsic activity entry is reported as “antagonists”. The Ki on human CB1 receptor [3] (Ki (μM, 95% CI)) is 8.6 µM; on human CB1 receptor [3] (setting [7]), 8.71 µM.

Consider `OCCN1CCN(CC/C=C2/c3ccccc3Sc3ccc(C(F)(F)F)cc32)CC1` [Compound 33, Flupentixol], for which the Solubility is ≥ 2.5 mg/mL and ≥ 4.93 mM in data set [4] (10% DMSO >> 40% PEG300 >> 5% Tween-80 >> 45% saline); ≥ 2.5 mg/mL and ≥ 4.93 mM in data set [4] (10% DMSO >> 90% (20% SBE-β-CD in saline)); ≥ 4.93 mM and ≥ 2.5 mg/mL in data set [4] (10% DMSO >> 90% corn oil). Besides, in data set [4] (in vitro, need ultrasonic), the “Solubility in H2O” value was 100 mg/mL and 197.07 mM. In addition, the “Solubility in DMSO” value in data set [4] (in vitro) is 33.33 mg/mL and 65.68 mM. The “pKi ± SEM” value on human CB1 receptor [3] (setting [8]) is recorded as 4.27 ± 0.04. The Ki at human CB1 receptor [3] (read-out: Ki (μM, 95% CI)) stood at 53 µM.

As to `COc1ccc(-n2c(=O)c3ccc(C(=O)NCCc4ccccc4)cc3n(Cc3ccccc3F)c2=O)cc1` [Compound 40], on human CB1 receptor [3], the “Ki (μM, 95% CI)” value is “no activity”. The “pKi ± SEM” value at human CB1 receptor [3] (setting [8]) is “no activity”.

Consider `O=C1NCCN1CCN1CCC(c2cn(-c3ccc(F)cc3)c3ccc(Cl)cc23)CC1` [Compound 44, Sertindole], for which, on human CB1 receptor [3] (setting [7]), the Ki was 41.7 µM.

On to `Cc1nc2c([nH]1)-c1ccccc1N(C(=O)c1ccc(NC(=O)c3ccccc3-c3ccccc3)cc1)CC2` [Compound 45, Conivaptan], for which the “Ki (μM, 95% CI)” value at human CB1 receptor [3] was “no activity”. The “pKi ± SEM” value at human CB1 receptor [3] (setting [8]) is given as “no activity”.

In the case of `CS(=O)(=O)N(c1cc(F)cc(F)c1)C1CN(C(c2ccc(Cl)cc2)c2ccc(Cl)cc2)C1` [Drinabant], at human CB1 (setting [6]), the Ki is 11 nM.

Turning to `O=C(c1ccc2c(c1)c1ccccc1n2CCCCCF)c1cccc2ccccc12` [EG-2201], the Ki on human CB1 (setting [5]) was 22.4 nM.

In the case of `CCCCCCC(C)(C)c1cc(O)c2c(c1)OC(C)(C)[C@@H]1CC=C(CO)C[C@@H]21` [HU-210], the Ki at human CB1 (setting [5]) is 0.06 nM.

Consider `CN=C(NS(=O)(=O)c1ccc(Cl)cc1)N1C[C@H](c2ccccc2)C(c2ccc(Cl)cc2)=N1` [Ibipinabant], for which the Ki at human CB1 (setting [6]) was 7.8 nM.

Turning to `CC(C)[C@H](N=C(NS(=O)(=O)c1ccc(Cl)cc1)N1C[C@H](c2ccccc2)C(c2ccc(Cl)cc2)=N1)C(N)=O` [JD-5037], at human CB1 (setting [6]), the Ki was 0.35 nM.

In the case of `CCCCCn1cc(C(=O)c2cccc3ccccc23)c2ccccc21` [JWH-018], the Ki on human CB1 (setting [5]) is 9 nM.

Take `CCCCCCn1cc(C(=O)c2cccc3ccccc23)cc1-c1ccccc1` [JWH-147]: the Ki on human CB1 (setting [5]) is 11 nM.

`CCCCCn1cc(C(=O)c2cccc3ccccc23)cc1-c1ccccc1F` [JWH-307]: on human CB1 (setting [5]), the Ki is 7.7 nM.

`COC(=O)[C@@H](NC(=O)c1ccc2c(c1)c1ccccc1n2CC1CCCCC1)C(C)(C)C` [MDMB-CHMCZCA]: the Ki at human CB1 (setting [5]) is 5.75 nM.

On to `C/C(N)=N\C(=N/S(=O)(=O)c1ccc(C(F)(F)F)cc1)N1C[C@H](c2ccccc2)C(c2ccc(Cl)cc2)=N1` [MRI-1867], for which, at human CB1 (setting [6]), the Ki was 2.3 nM.

Turning to `CCCCC/C=C\C/C=C\C/C=C\C/C=C\CCCCOC(CO)CO` [Noladin ether], the Ki at human CB1 (setting [5]) was 25 nM.

Regarding `O=C(NCc1ccc(F)cc1)c1ccc(S(=O)(=O)n2cc(N3CCCCC3)c3ccccc32)cc1` [PipISB], the Ki on human CB1 (setting [6]) was 1.5 nM.

Regarding `CCc1c(C(=O)NN2CCCCC2)nn(-c2ccc(Cl)cc2Cl)c1-c1ccc(Br)cc1` [Surinabant], the Ki on human CB1 (setting [6]) is 3.5 nM.

`C[C@H](NC(=O)C(C)(C)Oc1ccc(C(F)(F)F)cn1)[C@@H](Cc1ccc(Cl)cc1)c1cccc(C#N)c1` [Taranabant]: the Ki on human CB1 (setting [6]) was 0.13 nM.

Regarding `CCCCCn1cc(C(=O)C2C(C)(C)C2(C)C)c2ccccc21` [UR-144], on human CB1 (setting [5]), the Ki was 29 nM.

Consider `CC1(C)C(C(=O)c2cn(CCCCCF)c3ccccc23)C1(C)C` [XLR-11], for which the Ki on human CB1 (setting [5]) was 24 nM.

One may read the IC50 as the concentration at which inhibition is half-maximal. Higher therefore signals weaker potency in that assay. What is called Solubility is the dissolved amount per volume that the medium holds.

Values taken from publication PMC9585589 (ACS Chemical Neuroscience, 2022).
